*1 amine or outer side, *2 acyl side, *3 side chain or, on linkers, in order; H or OH if unused. Where a SMILES comes first, the peptide text is derived from it. Bridges are numbered along the chain shown (N, C = ends). [ ]: non-standard residue; d: D form. X1 = CC(C)CCCCCCCCC[C@H](CC(=O)[*:1])O[*:2]
Molecular target: Bovine Serum Albumin (BSA) (Bos taurus, UniProt P02769)
Assay: Thermal shift assay (SYPRO-Orange) of BSA
Type: biochemical
Conditions: FIG. 8, BSA 0.1 mg/ml, 1×PBS

Chain of Bovine Serum Albumin (BSA) (P02769 25-607): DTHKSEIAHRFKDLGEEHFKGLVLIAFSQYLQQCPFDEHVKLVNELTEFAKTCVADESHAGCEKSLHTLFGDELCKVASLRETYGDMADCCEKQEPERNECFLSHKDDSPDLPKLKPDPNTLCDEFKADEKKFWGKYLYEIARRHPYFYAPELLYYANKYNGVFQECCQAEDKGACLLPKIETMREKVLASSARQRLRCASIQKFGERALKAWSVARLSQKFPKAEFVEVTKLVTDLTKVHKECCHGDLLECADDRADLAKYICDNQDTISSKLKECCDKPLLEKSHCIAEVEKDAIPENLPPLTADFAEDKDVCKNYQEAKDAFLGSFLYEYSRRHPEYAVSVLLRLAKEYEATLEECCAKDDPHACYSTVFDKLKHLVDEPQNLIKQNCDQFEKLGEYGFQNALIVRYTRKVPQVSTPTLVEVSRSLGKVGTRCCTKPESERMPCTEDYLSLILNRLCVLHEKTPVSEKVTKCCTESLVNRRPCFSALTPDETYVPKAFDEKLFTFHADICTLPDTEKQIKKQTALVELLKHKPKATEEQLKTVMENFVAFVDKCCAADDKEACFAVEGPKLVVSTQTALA

## CC(C)CCCCCCCCC[C@@H]1CC(=O)N[C@@H](CCC(=O)O)C(=O)N[C@@H](CC(C)C)C(=O)N[C@H](CC(C)C)C(=O)N[C@@H](C(C)C)C(=O)N[C@@H](CC(=O)O)C(=O)N[C@H](CC(C)C)C(=O)N[C@@H](CC(C)C)C(=O)O1 [Surfactin] (EL[dL]VD[dL]L; linker N-C via X1)
  denaturing activity against BSA (decrease in Tm vs concentration): potent at denaturing BSA but less than 277-SEC
